6 molecules from patent US9790470B2, “In vitro pancreatic differentiation of pluripotent mammalian cells” (Cambridge Enterprise Limited, priority 2012, dated 2017) can be followed below.

One series has as its system DE cells. As to the kind of experiment: Ventral foregut / hepatic specification of DE cells, Q-PCR of hepatic markers (FIGS. 7, 8). The class given is cell-based, human. The text has this: (§1) Methods for RT-QPCR were described in Touboul T et al. (2010). Hepatology 51: 1754-1765. All data are presented as average of 3 independent biological triplicates and error bars indicate standard deviation.
During the screening of the culture conditions described above, we noted that DE cells grown in the presence of Activin acquired the appearance of foetal hepatocytes with large darkened cytoplasmic space and canaliculi-like structures. […] Alternatively, unknown signaling pathways could activate the same program of differentiation.

The subject of series [1] is DE cells generated from hESCs. Nature of the series: Pancreatic differentiation of hESC-derived definitive endoderm cells, QPCR of marker expression (FIG. 2). Particulars: for expression of pancreatic (progenitor) markers: hESC derived DE cells grown 3 days; for expression of gut (CDX2) and liver markers (AFP): hESC derived DE cells. The class given is cell-based. Here is the method:
QPCR analyses showing the expression of PDX1/HLXB9/HNF6/CDX2/AFP/SOX9/PTF1A in DE cells grown for 3 days in the presence of diverse combination of Retinoic Acid (RA), SB431542 (SB) or Activin 10 ng/ml (Act), FGF10 50 ng/ml (FGF) or SU5402 10 μM (SU), and Noggin 100 ng/ml (Nog) or BMP4 10 ng/ml.
hESCs (H9 from WiCell) and hIPSCs (BBHX8, A1ATD-1, JRO1D) (Rashid S, et al. (2010) J Clin Invest 120: 3127-3136) were grown in defined culture (Brons et al (2007) Nature 448: 191-195). Cells were passaged weekly using collagenase IV and maintained in chemically defined medium (CDM) supplemented with Activin A (10 ng/ml) and FGF2 (12 ng/ml) as described previously ((Brons et al (2007)). Differentiation was carried out as described in FIG. 1. Daily media changes were made during the entire differentiation protocol. After the DE stage (stage 1), cells were cultured in Advanced DMEM (Invitrogen) supplemented with SB-431542 (10 μM; Tocris), FGF10 (50 ng/ml; AutogenBioclear), all-trans retinoic acid (RA, 2 μM; Sigma) and Noggin (50 ng/ml; R&D Systems) for 3 days. For stage 3, the cells were cultured in Advanced DMEM+human FGF10 (50 ng/ml; AutogenBioclear), all-trans retinoic acid (RA, 2 μM; Sigma), KAAD-cyclopamine (0.25 μM; Toronto Research Chemicals) and Noggin (50 ng/ml; R&D Systems) for 3 days. For Stage 4, the cells were cultured in human KGF (FGF7) or FGF10 (50 ng/ml; R&D Systems) for 3 days. For maturation of pancreatic progenitors, cells were grown in Advanced DMEM+1% vol/vol B27 and DAPT ([…]) for 3 days and for 3 additional days in Advanced DMEM+1% vol/vol B27. Alternatively, for Stage 4, the cells were cultured in human KGF (FGF7) or FGF10 (50 ng/ml; R&D Systems) and all-trans retinoic acid (RA, 2 μM; Sigma) for 3 days. Alternatively for maturation of pancreatic progenitors, cells were grown in Advanced DMEM+1% vol/vol B27, all-trans retinoic acid (RA, 2 μM; Sigma) and DAPT ([…]) for 3 days and for 3 additional days in Advanced DMEM+1% vol/vol B27 and all-trans retinoic acid (RA, 2 μM; Sigma).
as §1
We recently established a defined culture system to differentiate hESCs and hIPSCs into near homogenous populations of Definitive Endoderm (DE) cells (Teo A K et al. (2011) Genes Dev 25: 238-250). Importantly, this culture system relies on a chemically defined medium (CDM) devoid of animal products, including BSA, serum, complex extra cellular matrix such as Matrigel™, or feeders cells; thereby avoiding the presence of unknown factors which could interfere with experimental outcomes. To further extend this protocol, we screened a broad number of combinations of growth factors and inhibitors of signalling pathways to identify defined culture conditions driving differentiation of DE cells into pancreatic progenitors. […] We then sought to validate and optimise the role of each of these additives.

With `Cc1c[nH]c(/C=C2\C(=O)Nc3ccccc32)c1CCC(=O)O` [SU5402], in the series with DE cells (FIGS. 7 and 8), the “expression of ventral foregut / liver bud / hepatic markers” value was “decreases the expression of hepatic markers”. The cell death result in series [1] (FGF inhibition during pancreatic differentiation) is “significant cell death”. Further, the “expression of PTF1A” value in series [1] (absence of FGF signalling, QPCR, FIG. 2) was “strongly reduced”. In addition, in series [1] (QPCR, FIG. 2), the “expression of pancreatic (progenitor) markers” value (“expression of pancreatic” below) is “did not affect the expression of pancreatic progenitor markers”; the “expression of gut (CDX2) and liver markers (AFP)” value is reported as “augmented”.

Turning to `NC(=O)c1ccc(-c2nc(-c3ccc4c(c3)OCO4)c(-c3ccccn3)[nH]2)cc1` [SB431542, 4-(5-Benzol[1,3]dioxol-5-yl-4-pyridin-2-yl-1H-imidazol-2-yl)-benzamide hydrate], the “expression of ventral foregut / liver bud / hepatic markers” value with DE cells (FIGS. 7 and 8, hydrate) was “decreases the expression of hepatic markers”; in the series on DE cells (FIGS. 7 and 8, listed as SB, hydrate), “decreased the expression of HNF4α, SOX17, HEX and TBX3”. Also, in series [1] (QPCR, FIG. 2), the “expression of pancreatic” value was “had the opposite effect”.

Take `CC1=C(/C=C/C(C)=C/C=C/C(C)=C/C(=O)O)C(C)(C)CCC1` [RA, (2E,4E,6E,8E)-3,7-dimethyl-9-(2,6,6-trimethylcyclohexen-1-yl)nona-2,4,6,8-tetraenoic acid]: in series [1] (QPCR, FIG. 2), the “expression of pancreatic” value is on record as “necessary for the induction of pancreatic specification”.

B1: Activin: dimeric polypeptide which stimulates the Activin/Nodal pathway (protein, UniProt P08476 311-426, looked up)
Inhibin beta A chain: GLECDGKVNICCKKQFFVSFKDIGWNDWIIAPSGYHANYCEGECPSHIAGTSGSSLSFHSTVINHYRMRGHSPFANLKSCCVPTKLRPMSMLYYDDGQNIIKKDIQNMIVEECGCS
modifications: Inhibin beta A chain
Take B1: the “expression of ventral foregut / liver bud / hepatic markers” value in the series on DE cells (FIGS. 7 and 8) is reported as “expressed genes marking ventral foregut”. For the same molecule, the “expression of pancreatic” value in series [1] (QPCR, FIG. 2) is on record as “abolished the expression of pancreatic markers”.

B2: Noggin: BMP inhibitor (BMP antagonist protein) (protein, UniProt Q13253 28-232, looked up)
Noggin: QHYLHIRPAPSDNLPLVDLIEHPDPIFDPKEKDLNETLLRSLLGGHYDPGFMATSPPEDRPGGGGGAAGGAEDLAELDQLLRQRPSGAMPSEIKGLEFSEGLAQGKKQRLSKKLRRKLQMWLWSQTFCPVLYAWNDLGSRFWPRYVKVGSCFSKRSCSVPEGMVCKPSKSVHLTVLRWRCQRRGGQRCGWIPIQYPIISECKCSC
In the case of B2, the HNF4 expression entry with DE cells (FIG. 8) is reported as “moderate decrease”. Moreover, the “expression of ventral foregut / liver bud / hepatic markers” value in the series with DE cells (FIGS. 7 and 8) is “decreases the expression of hepatic markers”.

B3: BMP4: Bone Morphogenic Protein 4, NCBI GeneID: 652 (protein, UniProt P12644 293-408, looked up)
Bone morphogenetic protein 4: SPKHHSQRARKKNKNCRRHSLYVDFSDVGWNDWIVAPPGYQAFYCHGDCPFPLADHLNSTNHAIVQTLVNSVNSSIPKACCVPTELSAISMLYLDEYDKVVLKNYQEMVVEGCGCR
With B3, in series [1] (QPCR, FIG. 2), the “expression of pancreatic” value was “significant decrease in the expression of pancreatic progenitor markers”; the “expression of gut (CDX2) and liver markers (AFP)” value was “inducing gut (CDX2) and liver markers (AFP)”.
